# Source: US20130143256A1, “LIQUID-BASED METHOD FOR PRODUCING PLANT EMBRYOS” (ArborGen Inc., priority 2006, published 2013)
# What was measured:
# Format in all cases: cell-based, loblolly pine
# cell line N = assay: Effect of maltose on embryo production in liquid EDM, cell line N; conditions: maltose 0 to 60 g/l
# Description: (§1) Suspension cultures of the following four loblolly pine genotypes, I, B, M, and N, were tested. Each cell line or genotype was initiated from an individual immature seed explant derived from a control pollinated cross of select parent trees of loblolly pine. Five variations in the Liquid EDM listed in Table 1 were tested for development of loblolly pine somatic embryos in liquid. The five treatments were coded 1, 2, 3, 4 and 5 according to the concentration of maltose in the liquid medium, 0, 10, 20, 40 and 60 g/l, respectively. The proliferating embryogenic suspension cultures were poured in the side arm of the flask for 30 minutes to measure the settled cell volume (SCV) as described in example 2. A sub-sample of 12 ml of proliferating liquid suspension was removed for baseline development plating on five plates of MSG gelled embryo development medium for comparative purposes. The SCV measurement was recorded and the proliferating liquid suspensions were distributed among the treatments listed above. […] The SCV measurements were recorded and the flasks were placed on the shaker in the dark, 24° C. growth chamber and monitored on a weekly basis for five weeks as described below. the liquid embryo development suspensions were poured into the sidearm and allowed to settle in the sidearm for 30 minutes and the SCV measured and recorded. […]
# [1] = system: pine somatic embryos, genotype B; assay: Germination of embryos developed at varying maltose concentration, genotype B
# Description: (§2) In this particular experiment, after the 3 week conditioning treatment, the embryos on the membrane were placed on modMS germination medium in a lighted culture room at 24° C. After 3 to 5 days the embryos were individually removed from the membrane and transferred directly to the surface of modMS germination medium and cultured for an additional 2 weeks in a lighted growth room at 24° C. Embryo germination, which in this particular instance was estimated by identifying the emergence of a root from the embryo that was at least 1 cm long during this 2 week time period. Twenty-nine percent of the embryos harvested from liquid EDM germinated. Embryos were harvested and prepared for germination using two conditioning treatments: (1) exposure to high relative humidity for 3 weeks at 24° C. […] Embryos were then germinated as previously described in Example 5.
# cell line M = assay: Effect of maltose on embryo production in liquid EDM, cell line M; conditions: highest (60 g/L) concentration of maltose
# Description: as §1
# cell line I = assay: Effect of maltose on embryo production in liquid EDM, cell line I; conditions: for Total Avg. Potential Embryos: 30 ml
# Description: (§3) Suspension cultures of the following four loblolly pine genotypes, I, B, M, and N, were tested. Each cell line or genotype was initiated from an individual immature seed explant derived from a control pollinated cross of select parent trees of loblolly pine. Five variations in the Liquid EDM listed in Table 1 were tested for development of loblolly pine somatic embryos in liquid. The five treatments were coded 1, 2, 3, 4 and 5 according to the concentration of maltose in the liquid medium, 0, 10, 20, 40 and 60 g/l, respectively. The proliferating embryogenic suspension cultures were poured in the side arm of the flask for 30 minutes to measure the settled cell volume (SCV) as described in example 2. A sub-sample of 12 ml of proliferating liquid suspension was removed for baseline development plating on five plates of MSG gelled embryo development medium for comparative purposes. The SCV measurement was recorded and the proliferating liquid suspensions were distributed among the treatments listed above. Each treatment flask was initiated by placing 15 milliliters of 100% SCV onto a raft placed on a Buchner funnel and the excess liquid was removed through gentle vacuum aspiration. The tissues were then re-suspended into a 250 ml sidearm flask with 30 milliliters of Liquid Embryo Development Media with various maltose concentrations (from 0 to 60 g/l). Once the cultures were re-suspended in liquid EDM the suspensions were poured in the sidearm to settle in the sidearm for thirty minutes to measure the SCV. Each treatment had three replicate flasks. The SCV measurements were recorded and the flasks were placed on the shaker in the dark, 24° C. growth chamber and monitored on a weekly basis for five weeks as described below. the liquid embryo development suspensions were poured into the sidearm and allowed to settle in the sidearm for 30 minutes and the SCV measured and recorded. Each flask was sub-cultured as needed by adding liquid EDM to maintain the suspension density at 50%. This sequence of events was repeated at week two and week three. no media manipulation. The cultures were observed and placed back on the shaker. At week five the embryos were harvested as described in example 6 with the exception of using a 560 μm mesh to wash embryos. Half of the embryos were conditioned as described in example 6 and half were conditioned by the method described in U.S. Application Ser. No. 60/675, 949 simply for comparative purposes.
# cell line B = assay: Effect of maltose on embryo production in liquid EDM, cell line B; conditions: for Total Avg. Potential Embryos: 30 ml
# Description: as §3
# [2] = system: pine somatic embryos, genotype I; assay: Germination of embryos developed at varying maltose concentration, genotype I
# Description: as §2
# [3] = Cond 1: 3 wk HRH, maltose conc. 1%
# [4] = Cond 1: 3 wk HRH, maltose conc. 2%
# [5] = Cond 1: 3 wk HRH, maltose conc. 4%
# [6] = Cond 1: 3 wk HRH, maltose conc. 6%
# [7] = Cond 2: 4 wk cold & 3 wk HRH, maltose conc. 1%
# [8] = Cond 2: 4 wk cold & 3 wk HRH, maltose conc. 2%
# [9] = Cond 2: 4 wk cold & 3 wk HRH, maltose conc. 4%
# [10] = Cond 2: 4 wk cold & 3 wk HRH, maltose conc. 6%
# [11] = cell line I, maltose 10 g/l, week 5
# [12] = cell line I, maltose 20 g/l, week 5
# [13] = cell line I, maltose 40 g/l, week 5
# [14] = cell line I, maltose 60 g/l, week 5
# [15] = cell line B, maltose 10 g/l, week 5
# [16] = cell line B, maltose 20 g/l, week 5
# [17] = cell line B, maltose 40 g/l, week 5
# [18] = cell line B, maltose 60 g/l, week 5
smiles,measurement,setting,value
OC[C@H]1O[C@H](O[C@H]2[C@H](O)[C@@H](O)C(O)O[C@@H]2CO)[C@H](O)[C@@H](O)[C@@H]1O (mixture of isomers) [maltose],response to maltose treatments,cell line N,did not respond
same,Germination,[1]; [3],9%
same,Germination,[1]; [4],8%
same,Germination,[1]; [5],8%
same,Germination,[1]; [6],41%
same,Germination,[1]; [7],5%
same,Germination,[1]; [8],3%
same,Germination,[1]; [9],24%
same,Germination,[1]; [10],29%
same,response to increasing maltose,cell line M,producing embryos that had not fully development
same,production of fully developed embryos,"cell line I; cell line I, all liquid EDM treatments that contained maltose (10 to 60 g/l)",Fully developed embryos were produced
same,Avg. Embryos,"cell line I; cell line I, maltose 10 g/l",206 per g tissue
same,Total Avg. Potential Embryos,"cell line I; cell line I, maltose 10 g/l",464 per flask
same,Avg. Embryos,cell line I; [11],16 per ml
same,Avg. ± st. dev. Embryos harvested,cell line I; [11],232 ± 14 per 15 ml
same,Avg. Embryos,"cell line I; cell line I, maltose 20 g/l",216 per g tissue
same,Total Avg. Potential Embryos,"cell line I; cell line I, maltose 20 g/l",486 per flask
same,Avg. Embryos,cell line I; [12],14 per ml
same,Avg. ± st. dev. Embryos harvested,cell line I; [12],243 ± 60 per 15 ml
same,Avg. Embryos,"cell line I; cell line I, maltose 40 g/l",237 per g tissue
same,Total Avg. Potential Embryos,"cell line I; cell line I, maltose 40 g/l",526 per flask
same,Avg. Embryos,cell line I; [13],16 per ml
same,Avg. ± st. dev. Embryos harvested,cell line I; [13],263 ± 22 per 15 ml
same,Avg. Embryos,"cell line I; cell line I, maltose 60 g/l",290 per g tissue
same,Total Avg. Potential Embryos,"cell line I; cell line I, maltose 60 g/l",702 per flask
same,Avg. Embryos,cell line I; [14],20 per ml
same,Avg. ± st. dev. Embryos harvested,cell line I; [14],351 ± 66 per 15 ml
same,average number of embryos produced per total volume of medium used (discarded and saved),"cell line I; line I, 40 g/l maltose, 70 ml medium",7.5 embryos per total ml media used
same,average number of embryos produced per ml of total media used,"cell line I; line I, across maltose levels from 10 to 60 g/l",8.3 per ml
same,production of fully developed embryos,"cell line B; cell line B, all liquid EDM treatments that contained maltose (10 to 60 g/l)",Fully developed embryos were produced
same,Avg. Embryos,"cell line B; cell line B, maltose 10 g/l",189 per g tissue
same,Total Avg. Potential Embryos,"cell line B; cell line B, maltose 10 g/l",464 per flask
same,Avg. Embryos,cell line B; [15],17 per ml
same,Avg. ± st. dev. Embryos harvested,cell line B; [15],232 ± 84 per 15 ml
same,Avg. Embryos,"cell line B; cell line B, maltose 20 g/l",218 per g tissue
same,Total Avg. Potential Embryos,"cell line B; cell line B, maltose 20 g/l",526 per flask
same,Avg. Embryos,cell line B; [16],18 per ml
same,Avg. ± st. dev. Embryos harvested,cell line B; [16],263 ± 76 per 15 ml
same,Avg. Embryos,"cell line B; cell line B, maltose 40 g/l",165 per g tissue
same,Total Avg. Potential Embryos,"cell line B; cell line B, maltose 40 g/l",422 per flask
same,Avg. Embryos,cell line B; [17],15 per ml
same,Avg. ± st. dev. Embryos harvested,cell line B; [17],211 ± 281 per 15 ml
same,Avg. Embryos,"cell line B; cell line B, maltose 60 g/l",89 per g tissue
same,Total Avg. Potential Embryos,"cell line B; cell line B, maltose 60 g/l",240 per flask
same,Avg. Embryos,cell line B; [18],8 per ml
same,Avg. ± st. dev. Embryos harvested,cell line B; [18],120 ± 20 per 15 ml
same,average number of embryos produced per ml of total media used,"cell line B; line B, across maltose levels from 10 to 60 g/l",5.6 per ml
same,Germination,[2]; [3],37%
same,Germination,[2]; [4],40%
same,Germination,[2]; [5],33%
same,Germination,[2]; [6],19%
same,Germination,[2]; [7],21%
same,Germination,[2]; [8],55%
same,Germination,[2]; [9],48%
same,Germination,[2]; [10],27%
